Results published in patent US12227511B2, “Bicyclic compounds as kinase modulators, methods and uses thereof” (Agency for Science, Technology and Research, priority 2018, dated 2025).
Counter-ions that a name gives are not always drawn.

How the values were obtained:
[1] = tested on: hepatocellular carcinoma (HCC); details: HCC patients, cited from earlier work
[2] = tested on: hepatocellular carcinoma (HCC); details: clinical; cited from earlier work
HCCLM3 cells = experiment: GI50 in HCCLM3 cells, cell viability by MTS assay; format: cell-based; details: Homo sapiens, 72 hours incubation, triplicates, read-out: HCCLM3 activity range (GI50)
Description: To investigate the effects of compounds on hepatocellular carcinoma (HCC) cell viability, HCCLM3 cells (HCC cells with high metastatic potential) were incubated with increasing concentrations of test compounds for 72 hours. Cell viability was evaluated at the end of incubation period by MTS assay. […] All samples were evaluated in triplicates.
As set forth in Table 1 below, GI50 values are defined as follows: GI50≤10 μM (+++); GI50>10 μM and ≤20 μM (++); GI50>20 μM (+).

[3] = tested on: hepatocellular carcinoma (HCC); details: HCC patients taking Stivarga (Regorafenib); cited from earlier work

Compound | GI50 (HCCLM3 cells) [µM] | also measured
CNC(=O)c1cc(Oc2ccc(NC(=O)Nc3ccc(Cl)c(C(F)(F)F)c3)cc2)ccn1 [Sorafenib] |  | increase of survival rate compared to a placebo ([1]; Sorafenib vs placebo): 2.8 months; median survival rate ([1]; Sorafenib): about 10.7 months
COc1cc2nccc(Oc3ccc(NC(=O)C4(C(=O)Nc5ccc(F)cc5)CC4)cc3)c2cc1OC [Cabozantinib] |  | incidence of adverse events (AEs) compared to Regorafenib [2]: higher incidence of adverse events
COc1cc2nccc(Oc3ccc(NC(=O)C4(C(=O)NC56CC(NC(=O)C7(C(=O)Nc8ccc(Oc9ccnc%10cc(OC)c(OC)cc9%10)cc8)CC7)(C5)C6)CC4)cc3)c2cc1OC [Compound 14, N,N′-(bicyclo[1.1.1]pentane-1,3-diyl)bis(N-(4-((6,7-dimethoxyquinolin-4-yl)oxy)phenyl)cyclopropane-1,1-dicarboxamide)] | > 20 | 
COc1cc2nccc(Oc3ccc(NC(=O)C4(C(=O)N5C6CCCC5CCC6)CC4)cc3)c2cc1OC [Compound 26, 1-((1s,5s)-9-azabicyclo[3.3.1]nonane-9-carbonyl)-N-(4-((6,7-dimethoxyquinolin-4-yl)oxy)phenyl)cyclopropane-1-carboxamide] | > 20 | 
CNC(=O)c1cc(Oc2ccc(NC(=O)Nc3ccc(Cl)c(C(F)(F)F)c3)c(F)c2)ccn1 [Regorafenib] |  | median overall survival [3]: about 10.6 months

More lines, main results first:

GI50 (HCCLM3 cells) [µM] | Compound | also measured
≤ 10 | COc1cc2nccc(Oc3ccc(NC(=O)C4(C(=O)NC56CC(C(F)(F)F)(C5)C6)CC4)cc3)c2cc1OC [Compound 11, N-(4-((6,7-dimethoxyquinolin-4-yl)oxy)phenyl)-N-(3-(trifluoromethyl)bicyclo[1.1.1]pentan-1-yl)cyclopropane-1,1-dicarboxamide] | 
> 20 | COc1cc2nccc(Oc3ccc(NC(=O)C45CC(C(=O)NC67CCC(CC6)C7)(C4)C5)cc3)c2cc1OC [Compound 34, N1-((1s,4s)-bicyclo[2.2.1]heptan-1-yl)-N3-(4-((6,7-dimethoxyquinolin-4 yl)oxy)phenyl)bicyclo[1.1.1]pentane-1,3-dicarboxamide] | 
> 20 | COc1cc2nccc(Oc3ccc(NC(=O)C4(C(=O)NC56CC(C(=O)O)(C5)C6)CC4)cc3)c2cc1OC [Compound 29, 3-(1-((4-((6,7-dimethoxyquinolin-4-yl)oxy)phenyl)carbamoyl)cyclopropane-1-carboxamido)bicyclo[1.1.1]pentane-1-carboxylic acid hydrochloride] | 
10 to 20 | COc1cc2nccc(Oc3ccc(NC(=O)C4(C(=O)NC56CC7CC(CC(C7)C5)C6)CC4)cc3)c2cc1OC [Compound 28, N-((3R,5R)-adamantan-1-yl)-N-(4-((6,7-dimethoxyquinolin-4-yl)oxy)phenyl)cyclopropane-1,1-dicarboxamide] | 
≤ 10 | COc1cc2nccc(Oc3ccc(NC(=O)C4(C(=O)NC56CC(CO)(C5)C6)CC4)cc3)c2cc1OC [Compound 32, N-(4-((6,7-dimethoxyquinolin-4-yl)oxy)phenyl)-N-(3-(hydroxymethyl)bicyclo[1.1.1]pentan-1-yl)cyclopropane-1,1-dicarboxamide] | 
